PMC7503308, “A Novel Urease Inhibitor of Ruminal Microbiota Screened through Molecular Docking” (International Journal of Molecular Sciences, 2020)
Entries after “also recorded” stand apart in the source; their conditions may differ.

Key:
ruminal microbial urease = assay: Urease inhibition assay (Berthelot alkaline phenol-hypochlorite method); format: biochemical, rumen bacteria of Chinese Holstein dairy cows
Method: Rumen fluid samples were collected from five Chinese Holstein dairy cows with permanent rumen fistula 3 h after feeding a total mixed ration in the morning. All the operations were conducted in accordance with the protocol approved by the Animal Care and Use Committee for Livestock of the Institute of Animal Sciences, Chinese Academy of Agricultural Sciences (Permit Number: IAS2019-14, Permit Date: 22-03-2019). All rumen fluid samples were filtered by a six layer sterilized medical gauze and mixed in a sterilized beaker before being evenly distributed into different 50 mL tubes and stored in liquid nitrogen. The deforested samples were centrifuged at 12,000× g for 10 min at 4 °C, then the supernatant was removed from the tube. The remaining sediments were resuspended in a HEPES buffer solution (pH 7.5, 50 mM) and then centrifuged at 12,000× g for 10 min at 4 °C. The supernatant was discarded and the remaining rumen bacteria were collected and stored at −80 °C for later urease extraction. All the sample handing processes were conducted on an ice bath. […]
In vitro urease inhibition screening assays were conducted to further narrow the virtual screened compounds for further IC50 determination and kinetic characterization. […] The ammonia that was produced was measured using 50 μL of a phenol reagent containing 10.0 g/L phenol and 50 mg/L of sodium nitroprusside, and 50 μL of alkali reagent containing 5 g/L sodium hydroxide and 8.4 mL/L of sodium hypochlorite solution, at 37 °C for 30 min. The absorbance of each well was measured at 625 nm by a micro plate spectrophotometer (Thermo Scientific Varioskan Flash G-282, Thermo Scientific, Waltham, MA, USA). The endogenous nitrogen (blank) was measured by adding a 70 μL HEPES buffer (pH 7.5, 50 mM) containing no urea and 20 μL methanol solution in the first 30 min of the reaction mixture. The 100% initial activity was determined by adding a 15 μL methanol solution in the first 30 min of the reaction mixture. […]

ruminal microbiota = assay: Ruminal microbial fermentation in vitro (six generations): urea and NH3-N; format: cell-based, rumen fluid of Chinese Holstein dairy cows; conditions: 100 μM compound, 24 h, p < 0.01
Method: Seven solutions were prepared for the anaerobic media as solution A (3 g/L K2HPO4), solution B (0.6 g/L CaCl2, 3 g/L K2HPO4, 6 g/L NaCl, 0.6 g/L MgSO4·7H2O), solution C (6 g/L K2HPO4), solution D (1.6 g/L CaCl2·2H2O, 6 g/L K2HPO4, 12 g/L NaCl, 2.5 g/L MgSO4·7H2O), trace element solution (300 mg/L H3BO3, 100 mg/L ZnSO4·7H2O, 30 mg/L MnCl2·4H2O, 20 mg/L CoCl2·6H2O, 30 mg/L Na2MoO4·2H2O, 10 mg/L Na2SeO3, 20 mg/L NiCl2, 10 mg/L CuCl2·2H2O, 150 mg/L FeCl2·4H2O), volatile fatty acid (VFA) mixed solution (17 mL acetic acid, 6 mL propionic acid, 4 mL butyric acid, 1 mL n-valeric acid, 1 mL isovaleric acid, and 1 mL isobutyric acid), and hemin solution, prepared by diluting 50 mg of Haemon in NaOH (1 N solution) and made up to 100 mL with distilled water. Each liter of anaerobic media contained 30 mL of autoclaved rumen fluid supernatant, 0.5 g of glucose, 0.5 g of soluble starch, 0.5 g of cellobiose, 0.5 g of maltose, 0.5 g of […], 0.5 g of tripticase, 0.5 g of yeast extract, 8 g of NaHCO3, 0.1 mL of trace elements solution, 15 mL solution A, 15 mL solution B, 0.5 g of cysteine hydrochloride, 10 mL of hemin solution, 3.1 mL of VFA mixed solution, and 1 mg resazurin. The anaerobic urea solution was prepared using an anaerobic glove box, by dissolving 2.5 g of urea in a 50 mL anaerobic diluent. This diluent consisted of 3.8 mL of salt solution C, 3.8 mL of salt solution D, 5 mL of 8% sodium Na2CO3, 1 mL of 0.1% resazurin, 0.5 g of cysteine hydrochloride dissolved in distilled water and made up to 1000 mL and distributed into 50 mL anaerobic bottles. All the anaerobic bottles were sterilized by autoclave. Prior to the inoculation, fresh frozen rumen fluid samples, pretreated as described previously, were removed from the freezer, thawed, homogenized, and used immediately. […] Chromatographic gradients were referenced to the paper.

**Q.** Which “Percentage of inhibition against ruminal microbial urease” value (ruminal microbial urease; 0.5 mM compound, compared with other candidate compounds) does the source give for `COc1ccc(-c2ccc(CCC(=O)O)n2NC(N)=O)cc1` [6238-0047, 3-[1-[(aminocarbonyl)amino]-5-(4-methoxyphenyl)-1H-pyrrol-2-yl] propanoic acid] here?
**A.** Its value is “superior ruminal microbial urease inhibition capacity”.

**Q.** What about the IC50 (ruminal microbial urease; ruminal microbial urease, 37 °C, 30 min, pH 7.5) of the same compound?
**A.** The IC50 was 65.9 µM.

**Q.** What about the “Amount of urea degradation vs control group” value (ruminal microbiota; 16.65 mM urea) of the same compound?
**A.** Its value is “significantly lowered the amount of urea degradation”.

**Q.** What about the “NH3-N concentration / production vs control group” value (ruminal microbiota) of the same compound?
**A.** Its value is “significantly lower than the control group; also recorded: consistently lower than the control group”.
